According to patent US9890369B2 (priority 2013, dated 2018):
Values joined by “and” are separate entries in the source; they are usually repeats but may differ in a detail not shown here. Equal values may be shown once.

Legend:
CHO K1 cells (WTP4) = type: cell-based, Chinese hamster
CHO K1 cells = type: cell-based, Chinese hamster
HeLa cells = type: cell-based, human

CN[C@@H]1C[C@H]2O[C@@](C)([C@@H]1OC)n1c3ccccc3c3c4c(c5c6ccccc6n2c5c31)C(=O)NC4 [Staurosporine, staurosporine]
% G0/G1 (CHO K1 cells (WTP4)): 42.9% and 41.8%
% G2/M (CHO K1 cells (WTP4)): 13.6% and 12.2%
apoptosis induction by TUNEL staining (in words) (CHO K1 cells): complete conversion of cells
apoptosis induction by PARP cleavage (HeLa cells): apoptosis induction
